Blank lines part the entries; values can stand above or below the molecule they belong to.
Legend:
[1] = Beta glucan gel mediated oral delivery of nutraceuticals (absorption, pharmacokinetics)
Excerpt: Beta-glucan compositions can be used to delivery other nutrients or therapeutic molecule via oral delivery.

high fat diet rat = experiment: Rat animal model, high fat diet with CAGE-Leptin or BG-leptin treatment (body weight, food consumption); format: in vivo
Protocol: Materials and Methods. Rat Animal Model. Rats are fed normal diet for 5 weeks, both male and female, body weight and food consumption is measured. Animals are fed a high fat diet for 5 weeks, body weight and food consumption is measured. Animals are fed high fat diet with CAGE-Leptin treatment for 5 weeks, body weight and food consumption is measured. Animals are fed high fat diet with BG-leptin treatment for 5 weeks, body weight and food consumption is measured.
Four groups of male were getting high fat diet for 2 weeks and then we start administer with cage, cage-leptin ab and leptin ab treatments (FIG. 3).

[2] = tested on: high fat diet induced rat model; experiment: Oral delivery of anti-leptin antibody or leptin protein in high fat diet induced rat model; format: in vivo
Protocol: The inventors have developed an oral antibody or protein delivery platform and investigated feasibility using an anti-leptin antibody. […] The oral delivery vehicle facilitated enhancement of intestinal penetration of the antibody as well as protect the antibody from being damaged within the stomach in presence of acidic gastric juice. […] An oral dose of 5-10 μg leptin protein resulted 10-20% body weight reduction compared to the untreated high fat diet rat. […] Treated groups show less cholesterol contents in their blood which is within the normal range in opposed to the untreated animal that are observed with high cholesterol content.

enhancement of pharmacokinetics ([1]; Beta glucan mediated oral delivery, compared with free oral delivery, thioctic acid tested in rat): 10-20 folds
Molecule: O=C(O)CCCCC1CCSS1 (racemic) [DL-thioctic acid]

enhancement of pharmacokinetics ([1]; rat, in vivo, po): 10 folds
Molecule: CC/C=C\C/C=C\C/C=C\C/C=C\C/C=C\C/C=C\CCC(=O)O [Docosahexaenoic acid, docosahexaenoic acid]

Molecule: O=S(=O)([O-])[O-].[Fe+2] [iron sulfate]
constipation problem associated with oral delivery ([1]; enhanced absorption by beta glucan): mitigation of constipation problem
absorption enhanced by Beta glucan ([1]; with Beta glucan, given orally): 60%

Molecule: leptin protein: Leptin protein (GenBank NP-000221), protein hormone of approx. 16 kDa formed by 146 amino acids
food consumption, male rat (high fat diet rat; male rats on high fat diet, versus high fat and regular diet control groups, FIG. 4 and FIG. 5): lower amount of food
body weight gain, male rat (high fat diet rat; male rats, FIG. 2): lower than regular and high fat diet male control group
body weight reduction compared to untreated high fat diet rat ([2]; oral dose of 5-10 μg): 10-20%
production of anti leptin antibody ([2]; oral leptin protein): results in production anti leptin antibody
fat content in body ([2]; treated high fat diet rat): significantly less fat content

enhancement of pharmacokinetics ([1]; rat, in vivo, po): 15-20 folds
Molecule: vitamin B12
